The test system of test [1] is mouse melanoma cell B16BL6. Briefly: Gene delivery efficiency (luciferase gene) with varied amounts of DNA, B16BL6 cells. To be noted: DNA:liposome 1:12 (w/w), luciferase gene 0.5, 1, 2 and 5 μg tested, FIGS. 2a-2c. The class given is cell-based. Here is the method:
Mouse melanoma cells […] were inoculated in MEM(minimum essential medium, Gibco-BRL, USA) containing 5% (v/v) fetal bovine serum, streptomycin and penicillin, and incubated in an incubator(NAPCO, USA) under an environment of 5% (v/v) CO2 at 37° C., which were aliquoted in 24-well plate to reach the cell density of 1×10^5 cell/well or 5×10^4 cell/well, and further incubated for 24 hrs to stabilize the cells.
(§1) For the evaluation of gene delivery efficiency of liposomes with varied amount of DNA, DNA-liposome complex was prepared by mixing DNA and liposome(1:12, w/w) in 500 μl of serum-free medium, while varying the amounts of luciferase gene as 0.5 μg, 1 μg, 2 μg and 5 μg. […] After incubation, media were discarded, cells were lysed by adding 100 μl of Luciferase cell culture lysis reagent(Promega, USA), and centrifuged at 14000 rpm for 10 sec. And then, 10 μl of supernatant was mixed with 20 μl of a substrate of luciferase, and luminescence was measured by using Luminometer(Mini lumat LB9506, EG&G BERTHOLD). Proteins in each well were quantitated by DC protein assay(Bio-rad, USA)(see: FIGS. 1a-1c and 2a-2c).

The subject of test [2] is 293 human kidney cell line. Briefly: Gene delivery efficiency (luciferase gene) with varied amounts of DNA, 293 cells. The test is classed as cell-based. As to conditions: DNA:liposome 1:12 (w/w), luciferase gene 0.5, 1, 2 and 5 μg tested, FIGS. 1a-1c. Here is the method: as §1

Take lysine-aspartate-hexadecanol [KD-DP]: the “amount of DNA showing the highest gene delivery efficiency” value (from here on “amount”) in test [1] amounted to 0.5 µg; in test [2], 2 µg.

On to lysine-aspartate-tetradecanol [KD-DM], for which the “amount” value in test [1] and in test [2] was 1 µg throughout.

In the case of lysine-glutamate-tetradecanol [KE-DM], the “amount” value in test [2] came out at 2 µg.

The values above are taken from patent US20050112185A1, “Positively charged lipid and liposome with the lipid” (priority 2002, published 2005).
